Like-named read-outs stand apart in the source and are kept apart here.
Tests used:
TbPTR1 = biological target: T1, TbPTR1 (Trypanosoma brucei brucei, UniProt O76290); test: biochemical; conditions: for inhibition at 50 µM: 50 μM compound, read-out: % Inhibition TbPTR1 at 50 μM; for IC50: dose-response 0.001-100 μM
T1 construct: made in house
T1 sequence (O76290 1-268): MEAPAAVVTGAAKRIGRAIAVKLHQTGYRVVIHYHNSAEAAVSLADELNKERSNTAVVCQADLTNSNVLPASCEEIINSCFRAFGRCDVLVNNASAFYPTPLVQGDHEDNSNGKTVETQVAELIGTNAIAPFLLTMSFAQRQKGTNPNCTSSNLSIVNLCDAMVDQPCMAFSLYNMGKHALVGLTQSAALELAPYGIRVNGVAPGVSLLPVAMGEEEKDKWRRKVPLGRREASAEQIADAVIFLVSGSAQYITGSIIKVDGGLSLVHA

hERG [1] = biological target: T2, hERG (Homo sapiens, UniProt Q12809); set-up: hERG inhibition liability assay
T2 construct: gene KCNH2
T2 sequence (Q12809 whole entry): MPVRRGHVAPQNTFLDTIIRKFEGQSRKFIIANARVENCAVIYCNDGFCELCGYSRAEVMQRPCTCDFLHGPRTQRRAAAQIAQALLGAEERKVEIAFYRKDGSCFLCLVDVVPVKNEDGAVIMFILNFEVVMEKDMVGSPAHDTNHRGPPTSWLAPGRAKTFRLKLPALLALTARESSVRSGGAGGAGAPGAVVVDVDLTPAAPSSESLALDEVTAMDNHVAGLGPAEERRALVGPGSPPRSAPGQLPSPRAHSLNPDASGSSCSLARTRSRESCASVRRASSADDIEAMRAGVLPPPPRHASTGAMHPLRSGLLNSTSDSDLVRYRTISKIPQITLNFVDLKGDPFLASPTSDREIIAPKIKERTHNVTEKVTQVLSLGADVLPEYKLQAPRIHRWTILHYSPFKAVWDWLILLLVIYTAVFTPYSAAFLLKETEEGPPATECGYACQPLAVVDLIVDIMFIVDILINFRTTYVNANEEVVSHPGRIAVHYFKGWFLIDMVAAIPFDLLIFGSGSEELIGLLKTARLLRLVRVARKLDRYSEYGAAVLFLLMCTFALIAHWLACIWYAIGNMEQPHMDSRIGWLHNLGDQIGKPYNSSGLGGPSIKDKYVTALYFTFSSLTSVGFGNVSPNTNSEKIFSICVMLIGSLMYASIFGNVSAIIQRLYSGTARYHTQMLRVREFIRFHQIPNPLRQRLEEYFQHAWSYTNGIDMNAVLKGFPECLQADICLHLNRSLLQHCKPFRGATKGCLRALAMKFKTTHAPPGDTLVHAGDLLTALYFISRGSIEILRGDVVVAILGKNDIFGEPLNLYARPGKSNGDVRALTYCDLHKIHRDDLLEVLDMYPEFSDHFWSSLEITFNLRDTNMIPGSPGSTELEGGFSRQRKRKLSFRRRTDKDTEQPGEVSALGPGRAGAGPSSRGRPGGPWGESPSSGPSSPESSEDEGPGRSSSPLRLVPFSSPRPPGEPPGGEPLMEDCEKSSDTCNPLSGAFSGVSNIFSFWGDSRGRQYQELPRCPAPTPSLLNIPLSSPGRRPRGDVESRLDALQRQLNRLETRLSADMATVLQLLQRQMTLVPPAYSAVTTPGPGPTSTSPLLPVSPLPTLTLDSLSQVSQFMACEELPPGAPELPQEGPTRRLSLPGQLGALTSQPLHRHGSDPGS

hERG [2] = biological target: T2, hERG; set-up: hERG channel inhibition
Procedure: (§1) Independent of the effect of any antiparasitic potential of compounds, they were evaluated using a panel of early-toxicity assays comprising cytotoxicity (A549, human lung adenocarcinoma epithelial cell line and WI-38, human lung fibroblasts), mitochondrial toxicity (786-O, human renal carcinoma cell line), hERG inhibition,[31] cytochrome P450 inhibition (CYP1A2, CYP2C9, CYP2C19, CYP2D6, and CYP3A4),[31] and Aurora B kinase inhibition. […] For the two compounds active against TbPTR1 (4m and 4o), IC50 against hERG, cytochrome P450, and mitochondrial toxicity were determined (reported in Supporting Information). We observed that the dose of compounds 4m, 4o, 4c, and 3k was 4 μM in the potentiation assays. […] In the case of hERG, CYP2D6, CYP2A9, CYP2C19, and mitochondrial toxicity, there is a selectivity index of around 3–4 fold, thus showing an acceptable profile.

in vitro [3] = test: in vitro; set-up: cytotoxicity, per cent cell growth of A549 cells; conditions: human, a549 cells; read-out: % cell growth A549 at 10uM
in vitro [4] = test: in vitro; set-up: cytotoxicity, per cent cell growth of WI-38 fibroblasts; conditions: human, wi-38 cells; read-out: % cell growth W1-38 at 10uM
hDHFR = biological target: T3, hDHFR (Homo sapiens, UniProt P00374); test: biochemical; set-up: human DHFR enzyme inhibition
T3 construct: gene DHFR
T3 sequence (P00374 1-187): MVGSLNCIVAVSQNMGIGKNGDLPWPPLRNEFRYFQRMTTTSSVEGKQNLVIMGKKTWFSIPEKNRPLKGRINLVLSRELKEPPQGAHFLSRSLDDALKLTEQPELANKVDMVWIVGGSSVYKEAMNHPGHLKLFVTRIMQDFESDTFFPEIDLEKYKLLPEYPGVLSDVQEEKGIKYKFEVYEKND
Outline: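 hDHFR inhibition tested at a single concentration of 100 μM, expressed as percent inhibitory activity.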

CYP3A4 = CYP3A4 (Homo sapiens, UniProt P08684); test: in vitro; set-up: cytochrome P450 isoform inhibition liability assay
CYP3A4, sequence (P08684 whole entry, canonical isoform): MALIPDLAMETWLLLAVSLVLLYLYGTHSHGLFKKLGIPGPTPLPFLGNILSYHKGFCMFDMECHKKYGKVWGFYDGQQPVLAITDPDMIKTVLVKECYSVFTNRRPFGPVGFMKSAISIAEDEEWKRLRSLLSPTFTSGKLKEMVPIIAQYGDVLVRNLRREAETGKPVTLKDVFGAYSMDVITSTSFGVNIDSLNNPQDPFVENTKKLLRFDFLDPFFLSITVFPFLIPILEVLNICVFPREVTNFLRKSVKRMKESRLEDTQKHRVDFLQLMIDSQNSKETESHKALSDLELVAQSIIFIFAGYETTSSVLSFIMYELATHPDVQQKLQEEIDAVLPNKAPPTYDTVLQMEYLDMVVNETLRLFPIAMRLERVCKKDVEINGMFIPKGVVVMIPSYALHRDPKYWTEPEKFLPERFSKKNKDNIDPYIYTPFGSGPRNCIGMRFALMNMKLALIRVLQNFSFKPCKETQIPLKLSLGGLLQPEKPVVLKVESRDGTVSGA

CYP2D6 = CYP2D6 (Homo sapiens, UniProt P10635); test: in vitro; set-up: cytochrome P450 isoform inhibition liability assay
CYP2D6, sequence (P10635 whole entry, canonical isoform): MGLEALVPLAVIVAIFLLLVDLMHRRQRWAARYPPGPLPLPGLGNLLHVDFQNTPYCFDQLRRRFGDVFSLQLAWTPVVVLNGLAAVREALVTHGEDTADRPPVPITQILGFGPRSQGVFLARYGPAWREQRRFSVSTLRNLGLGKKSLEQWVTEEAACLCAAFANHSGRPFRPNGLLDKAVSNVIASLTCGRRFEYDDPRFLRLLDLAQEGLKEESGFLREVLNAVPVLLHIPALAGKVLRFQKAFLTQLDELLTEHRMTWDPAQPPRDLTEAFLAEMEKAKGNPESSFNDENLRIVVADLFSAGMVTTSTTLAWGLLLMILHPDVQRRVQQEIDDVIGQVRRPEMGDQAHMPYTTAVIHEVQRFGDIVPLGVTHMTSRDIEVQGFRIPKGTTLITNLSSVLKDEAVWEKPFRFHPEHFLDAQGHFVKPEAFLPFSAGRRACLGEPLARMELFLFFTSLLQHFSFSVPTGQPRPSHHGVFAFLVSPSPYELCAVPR

786-O = test: cells; set-up: mitochondrial toxicity in 786-O cells; conditions: Homo sapiens, 786-0
Procedure: as §1

[5] = system: T. b. brucei Lister 427 bloodstream forms; test: In vitro activity against T. brucei (HTS SYBR Green I growth inhibition assay); format: cell-based, Trypanosoma brucei brucei; conditions: 50 μM, standard deviation within ±10% of the value; for inhibition at 50 µM: Trypanosoma brucei, read-out: % Inhibition T. brucei at 50 μM

SMILES | inhibition at 50 µM (TbPTR1) [%] | IC50 (TbPTR1) [µM] | IC50 (hERG [1]) [µM] | inhibition at 10 µM (hERG [2]) [%] | viability at 10 µM (in vitro [3]) [%] | viability at 10 µM (in vitro [4]) [%] | inhibition at 100 µM (hDHFR) [%] | IC50 (CYP3A4) [µM] | IC50 (CYP2D6) [µM] | inhibition at 10 µM (786-O) [%] | % Inhibition T. brucei at 50 μM [5] | inhibition at 50 µM [5] [%]
Nc1nnc(NCCc2cccs2)s1 [4o, N2G(2G(thiophenG2Gyl)ethyl)G1,3,4GthiadiazoleG2,5Gdiamine] | 79.8 ± 0.4 | 25 | 3.1 | 95.4 ± 8 | 105 ± 11.4 | 96.7 ± 13.5 | 24 | 34.4 | 12.4 | 0.5 ± 4.8 | poor antiparasitic activity | 37.9
Nc1nnc(NCc2ccc(-c3ccccc3)cc2)s1 [4m] | 73 ± 1.1 | 16 | 3.6 | 52.6 ± 11.6 | 112 ± 9.5 | 95.9 ± 18.6 | 40 | 12.1 | 11.5 | -2.5 ± 6.1 | – | 6.6
